Source: patent US10246457B2, “Indazole and azaindazole Btk inhibitors” (MERCK SHARP & DOHME CORP., priority 2015, dated 2019)

How the values were obtained:
[1] = molecular target: 25P Btk enzyme (un-activated full-length Btk) (Homo sapiens (Human), UniProt Q06187); assay: 25P Btk Enzyme Activity Assay (LANCE TR-FRET); type: biochemical; settings: un-activated Btk (25P), 25 μM ATP, 60 minute compound and enzyme incubation; read-out: Btk binding IC50 (nM) with 25 P
Method: Preparation of Un-Activated Btk Enzyme (25P Btk)
Un-activated full-length Btk recombinant protein was purified from baculovirus-transfected Sf21 cells. […] This protein represents the un-activated state of the Btk enzyme.
25P Btk Enzyme Activity Assay
Btk enzymatic activity was determined with the LANCE (Lanthanide Chelate Excite) TR-FRET (lime-resolved fluorescence resonance energy transfer) assay. […] To each well of a black non-binding surface Corning 384-well microplate (Corning Catalog #3820), 5 nL of compound (2000 fold dilution in final assay volume of 10 μL) was dispensed, followed by the addition of 7.5 μL of 1× kinase buffer (50 mM Hepes 7.5, 10 mM MgCl2, 0.01% Brij-35, 1 mM EGTA, 0.05% BSA and 1 mM DTT) containing 26.67 pg/μL (266.7 pM) of 25P Btk enzyme (recombinant protein from baculovirus-transfected Sf9 cells: full-length Btk; MW=79378 Da). Following a 60 minute compound and enzyme incubation, each reaction was initiated by the addition of 2.5 μL 1× kinase buffer containing 8 μM biotinylated “A5” peptide (Biotin-EQEDEPEGDYFEWLE-NH2), and 100 μM ATP. The final reaction in each well of 10 consists of 200 pM 25P Btk, 2 μM biotin-A5-peptide, and 25 μM ATP. Phosphorylation reactions were allowed to proceed for 120 minutes. Reactions were immediately quenched by the addition of 20 uL of 1× quench buffer (15 mM EDTA, 25 mM Hepes 7.3, and 0.1% Triton X-100) containing detection reagents (0.626 nM of LANCE-Eu-W1024-anti-phosphoTyrosine antibody, PerkinElmer and 86.8 nM of Streptavidin-conjugated Dylight 650, Dyomics/ThermoFisher Scientific). After 60 minutes incubation with detection reagents, reaction plates were read on a PerkinElmer EnVision plate reader using standard TR-FRET protocol. Briefly, excitation of donor molecules (Eu-chelate:anti-phospho-antibody) with a laser light source at 337 nm produces energy that can be transferred to Dylight-650 acceptor molecules if this donor:acceptor pair is within close proximity. Fluorescence intensity at both 665 nm (acceptor) and 615 nm (donor) are measured and a TR-FRET ratio calculated for each well (acceptor intensity/donor intensity). IC50 values were determined by 4 parameter robust fit of TR-FRET ratio values vs. (Log10) compound concentrations.

[2] = molecular target: 100P Btk enzyme (activated full-length Btk) (Homo sapiens (Human), UniProt Q06187); assay: 100P Btk Enzyme Activity Assay (LANCE TR-FRET); type: biochemical; settings: activated Btk (100P), 25 μM ATP, 60 minute compound and enzyme incubation; top concentration 1000 nM; read-out: Btk binding IC50 (nM) with 100 P
Method: Activated full-length Btk recombinant enzyme was expressed and purified in the same manner as the […] enzyme, except an auto-phosphorylation step was added to the purification scheme. […] This protein represents the activated state of the Btk enzyme. […] Btk Enzyme Activity Assay Btk enzymatic activity was determined with the LANCE (Lanthanide Chelate Excite) TR-FRET (lime-resolved fluorescence resonance energy transfer) assay. […] MW=79378 Da). […] Phosphorylation reactions were allowed to proceed for 45 minutes. […] After 60 minutes incubation with detection reagents, reaction plates were read on a PerkinElmer EnVision plate reader using standard TR-FRET protocol. Briefly, excitation of donor molecules (Eu-chelate:anti-phospho-antibody) with a laser light source at 337 nm produces energy that can be transferred to Dylight-650 acceptor molecules if this donor:acceptor pair is within close proximity. Fluorescence intensity at both 665 nm (acceptor) and 615 nm (donor) are measured and a TR-FRET ratio calculated for each well (acceptor intensity/donor intensity). […] (Log10) compound concentrations.

Sequence of 25P Btk enzyme (un-activated full-length Btk) (Q06187 whole entry): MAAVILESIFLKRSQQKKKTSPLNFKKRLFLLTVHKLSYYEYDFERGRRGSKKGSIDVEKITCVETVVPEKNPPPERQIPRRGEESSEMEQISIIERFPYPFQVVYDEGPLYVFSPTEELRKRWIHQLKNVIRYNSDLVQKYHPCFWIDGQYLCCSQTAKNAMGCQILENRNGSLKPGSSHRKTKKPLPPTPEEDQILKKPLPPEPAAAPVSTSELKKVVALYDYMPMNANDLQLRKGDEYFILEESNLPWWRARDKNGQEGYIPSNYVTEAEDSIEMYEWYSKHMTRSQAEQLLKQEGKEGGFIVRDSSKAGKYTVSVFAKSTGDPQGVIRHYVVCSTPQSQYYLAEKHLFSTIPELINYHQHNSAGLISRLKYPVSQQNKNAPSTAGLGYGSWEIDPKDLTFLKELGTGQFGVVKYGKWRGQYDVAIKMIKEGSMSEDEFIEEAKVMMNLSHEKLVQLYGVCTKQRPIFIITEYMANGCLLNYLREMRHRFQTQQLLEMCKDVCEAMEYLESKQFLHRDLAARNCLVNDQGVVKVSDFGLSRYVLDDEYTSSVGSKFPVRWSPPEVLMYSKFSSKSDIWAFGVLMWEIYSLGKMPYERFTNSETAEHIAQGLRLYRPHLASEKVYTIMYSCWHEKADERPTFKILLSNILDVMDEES
Sequence of 100P Btk enzyme (activated full-length Btk) (Q06187 whole entry): as above

Structure (SMILES)	IC50 [1] [nM]	IC50 [2] [nM]
COCCn1cc(-c2cc(-c3cccc(-n4ncc5cc(C(C)(C)C)cc(F)c5c4=O)c3CO)cc3c(N)n[nH]c23)cn1 [Example 26, 2-(3-(3-amino-7-(1-(2-methoxyethyl)-1H-pyrazol-4-yl)-1H-indazol-5-yl)-2-(hydroxymethyl)phenyl)-6-(tert-butyl)-8-fluorophthalazin-1(2H)-one]	0.096	5.3
Cn1cc(-c2cc(-c3cccc(-n4ncc5cc(C(C)(C)C)cc(F)c5c4=O)c3CO)cc3c(N)n[nH]c23)cn1 [Example 9, 2-{3-[3-amino-7-(1-methyl-1H-pyrazol-4-yl)-1H-indazol-5-yl]-2-(hydroxymethyl)phenyl}-6-tert-butyl-8-fluorophthalazin-1(2H)-one]	0.073	5.3
CC(C)(C)c1cc(F)c2c(=O)n(-c3cccc(-c4cc(-c5cnn(C6CCOCC6)c5)c5[nH]nc(N)c5c4)c3CO)ncc2c1 [Example 25, 2-(3-(3-amino-7-(1-(tetrahydro-2H-pyran-4-yl)-1H-pyrazol-4-yl)-1H-indazol-5-yl)-2-(hydroxymethyl)phenyl)-6-(tert-butyl)-8-fluorophthalazin-1(2H)-one]	0.18	2.6
CC(C)(C)c1cc(F)c2c(=O)n(-c3cccc(-c4cc5c(N)n[nH]c5cn4)c3CO)ncc2c1 [Example 21, 2-[3-(3-amino-1H-pyrazolo[3,4-c]pyridin-5-yl)-2-(hydroxymethyl)phenyl]-6-tert-butyl-8-fluorophthalazin-1(2H)-one]	9.5	801
CC(C)(C)c1cc(F)c2c(=O)n(-c3cccc(-c4cc(-c5cccnc5)c5[nH]nc(N)c5c4)c3CO)ncc2c1 [Example 10, 2-[3-(3-amino-7-pyridin-3-yl-1H-indazol-5-yl)-2-(hydroxymethyl)phenyl]-6-tert-butyl-8-fluorophthalazin-1(2H)-one]	0.8	299
CC(C)(C)c1cc(F)c2c(=O)n(-c3cccc(-c4cc(-c5ccccc5)c5[nH]nc(N)c5c4)c3CO)ncc2c1 [Example 19, 2-[3-(3-amino-7-phenyl-1H-indazol-5-yl)-2-(hydroxymethyl)phenyl]-6-tert-butyl-8-fluorophthalazin-1(2H)-one]	0.48	429
